# Tests used:
# rat [1] = conditions: Combined chronic toxicity/carcinogenicity, fischer, Oral, Feed, dose end: 2 year, group: systemic
# rat [2] = conditions: Combined chronic toxicity/carcinogenicity, fischer, Oral, Feed, dose end: 2 year, group: systemic; remark: listed apart in the source
# rat [3] = conditions: Multigenerational reproductive toxicity study, other, Oral, Gavage/Intubation, dose end: 2 generation
# rat [4] = conditions: Subchronic oral toxicity in rodents, fischer, Feed, dose end: 26 week, group: systemic
# rat [5] = conditions: Fertility (Segment I), fischer, Oral, Feed, dose end: 16 weeks (premating)
# mouse [6] = conditions: Subchronic oral toxicity in rodents, b6c3f1, Feed, dose end: 91 day, group: systemic, systemic / in life observation / body weight / body weight gain
# mouse [7] = conditions: Prenatal developmental toxicity study, cd1, Oral, Feed, dose end: 15 GD
# rat [8] = conditions: Prenatal developmental toxicity study, sprague dawley, Oral, Feed, dose end: 15 GD
# mouse [9] = conditions: Carcinogenicity; b6c3f1; Oral; Feed; dose end: 2 year; group: systemic; systemic / in life observation / body weight / body weight
# rat [10] = conditions: Multigenerational reproductive toxicity study, other, Oral, Gavage/Intubation, dose end: 2 generation; remark: listed apart in the source
# mouse [11] = conditions: Carcinogenicity, b6c3f1, Oral, Gavage/Intubation, dose end: 60 week, group: systemic
# rat [12] = conditions: Carcinogenicity; other; Oral; Gavage/Intubation; dose end: 78 week; group: systemic; systemic / in life observation / body weight / body weight gain + systemic / pathology microscopic / kidney / nephropathy + systemic / …
# [13] = systemic / organ weight / kidney / relative to body weight
# [14] = systemic / in life observation / body weight / body weight + systemic / in life observation / food consumption / food consumption + systemic…
# [15] = systemic / pathology gross / full gross necropsy / leukemia mononuclear + systemic / in life observation / body weight / body weight + …
# [16] = group: offspring, systemic / clinical chemistry / triiodothyronine (t3) / triiodothyronine (t3), total + systemic / in life observation / body weight / …
# [17] = group: parental, systemic / in life observation / clinical signs / salivation + systemic / organ weight / kidney / absolute + systemic / organ weight / …
# [18] = group: reproductive, reproductive / offspring survival early / live fetuses / live fetuses
# [19] = systemic / hematology / anemia / anemia - macrocytic + systemic / hematology / erythrocyte (rbc) count differential / erythrocyte (rbc) + …
# [20] = group: maternal, reproductive / reproductive performance / fertility / fertility
# [21] = group: parental, systemic / hematology / erythrocyte (rbc) count differential / erythrocyte (rbc) + systemic / hematology / hemoglobin (hgb) / hemoglobin (…
# [22] = group: developmental, developmental / developmental malformation / bone / exencephaly + developmental / developmental malformation / bone / [other] + …
# [23] = group: maternal, reproductive / offspring survival early / litter size / litter size + reproductive / offspring survival early / live fetuses / live fetuses…
# [24] = group: developmental, developmental / developmental malformation / bone / [other] + developmental / developmental malformation / bone / bipartite ossification + …
# [25] = group: maternal, reproductive / reproductive performance / resorptions / resorptions + systemic / in life observation / body weight / body weight + systemic…
# [26] = group: offspring, developmental / developmental landmark / anogenital distance (agd) / anogenital distance (agd)
# [27] = group: reproductive, reproductive / reproductive performance / fertility / fertility
# [28] = systemic / pathology microscopic / kidney / nephropathy
# [29] = systemic / pathology microscopic / kidney / nephropathy + systemic / pathology microscopic / stomach / squamous cell carcinoma + systemic / …
smiles,measurement,setting,value
CCCCOC(=O)c1ccccc1C(=O)OCc1ccccc1 [Butyl benzyl phthalate],LOAEL,rat [1]; systemic / in life observation / body weight / body weight + systemic / pathology microscopic / pancreas / hyperplasia,500 mg/kg/day
same,NOAEL,rat [1]; systemic / in life observation / body weight / body weight + systemic / pathology microscopic / pancreas / hyperplasia + systemic / …,240 mg/kg/day
same,LEL,rat [1]; [13],120 mg/kg/day
same,NEL,rat [1]; [13],< 120 mg/kg/day
same,LEL,rat [2]; [14],300 mg/kg/day
same,NEL,rat [2]; [14],< 300 mg/kg/day
same,LOAEL,rat [2]; [15],> 600 mg/kg/day
same,NOAEL,rat [2]; [15],≥ 600 mg/kg/day
same,LEL,rat [3]; [16],100 mg/kg/day
same,LOAEL,rat [3]; [16],> 500 mg/kg/day
same,NEL,rat [3]; [16],20 mg/kg/day
same,NOAEL,rat [3]; [16],≥ 500 mg/kg/day
same,LEL,rat [3]; [17],100 mg/kg/day
same,LOAEL,rat [3]; [17],> 500 mg/kg/day
same,NEL,rat [3]; [17],20 mg/kg/day
same,NOAEL,rat [3]; [17],≥ 500 mg/kg/day
same,LEL,rat [3]; [18],500 mg/kg/day
same,LOAEL,rat [3]; [18],> 500 mg/kg/day
same,NEL,rat [3]; [18],100 mg/kg/day
same,NOAEL,rat [3]; [18],≥ 500 mg/kg/day
same,LOAEL,rat [4]; [19],1250 mg/kg/day
same,NEL,rat [4]; [19],60 mg/kg/day
same,NOAEL,rat [4]; [19],550 mg/kg/day
same,LEL,rat [4]; systemic / hematology / erythrocyte (rbc) count differential / erythrocyte (rbc),180 mg/kg/day
same,LEL,rat [5]; [20],2200 mg/kg/day
same,LOAEL,rat [5]; [20],> 2200 mg/kg/day
same,NEL,rat [5]; [20],200 mg/kg/day
same,NOAEL,rat [5]; [20],≥ 2200 mg/kg/day
same,LOAEL,rat [5]; [21],> 2200 mg/kg/day
same,NEL,rat [5]; [21],20 mg/kg/day
same,NOAEL,rat [5]; [21],≥ 2200 mg/kg/day
same,LEL,"rat [5]; group: parental, systemic / pathology gross / sperm measure / sperm count",200 mg/kg/day
same,LEL,mouse [6],240 mg/kg/day
same,LOAEL,mouse [6],> 3750 mg/kg/day
same,NEL,mouse [6],< 240 mg/kg/day
same,NOAEL,mouse [6],≥ 3750 mg/kg/day
same,LEL,"mouse [7]; group: developmental, developmental / developmental malformation / bone / exencephaly",910 mg/kg/day
same,LOAEL,mouse [7]; [22],> 2330 mg/kg/day
same,NEL,mouse [7]; [22],182 mg/kg/day
same,NOAEL,mouse [7]; [22],≥ 2330 mg/kg/day
same,LEL,"mouse [7]; group: maternal, reproductive / offspring survival early / litter size / litter size + reproductive / offspring survival early / live fetuses / live fetuses",910 mg/kg/day
same,LOAEL,mouse [7]; [23],> 2330 mg/kg/day
same,NEL,mouse [7]; [23],182 mg/kg/day
same,NOAEL,mouse [7]; [23],≥ 2330 mg/kg/day
same,LOAEL,rat [8]; [24],> 1640 mg/kg/day
same,NEL,rat [8]; [24],420 mg/kg/day
same,NOAEL,rat [8]; [24],≥ 1640 mg/kg/day
same,LEL,"rat [8]; group: developmental, developmental / developmental malformation / bone / short supernumerary",1100 mg/kg/day
same,LOAEL,rat [8]; [25],> 1640 mg/kg/day
same,NEL,rat [8]; [25],420 mg/kg/day
same,NOAEL,rat [8]; [25],≥ 1640 mg/kg/day
same,LEL,"rat [8]; group: maternal, systemic / in life observation / body weight / body weight + systemic / in life observation / body weight / body weight gain + systemic / in…",1100 mg/kg/day
same,LEL,mouse [9],900 mg/kg/day
same,LOAEL,mouse [9],900 mg/kg/day
same,NEL,mouse [9],< 900 mg/kg/day
same,NOAEL,mouse [9],< 900 mg/kg/day
same,LEL,rat [10]; [26],100 mg/kg/day
same,LOAEL,rat [10]; [26],100 mg/kg/day
same,NEL,rat [10]; [26],< 100 mg/kg/day
same,NOAEL,rat [10]; [26],< 100 mg/kg/day
same,LEL,"rat [10]; group: parental, systemic / in life observation / clinical signs / salivation + systemic / organ weight / kidney / absolute + systemic / organ weight / liver…",200 mg/kg/day
same,LOAEL,rat [10]; [17],> 400 mg/kg/day
same,NEL,rat [10]; [17],100 mg/kg/day
same,NOAEL,rat [10]; [17],≥ 400 mg/kg/day
same,LEL,rat [10]; [27],400 mg/kg/day
same,LOAEL,rat [10]; [27],> 400 mg/kg/day
same,NEL,rat [10]; [27],200 mg/kg/day
same,NOAEL,rat [10]; [27],≥ 400 mg/kg/day
"ClCC(Br)CBr (stereo unspecified) [1,2-Dibromo-3-chloropropane]",LOAEL,mouse [11]; [28],110 mg/kg/day
same,NOAEL,mouse [11]; [28],< 110 mg/kg/day
same,LEL,mouse [11]; [29],110 mg/kg/day
same,NEL,mouse [11]; [29],< 110 mg/kg/day
same,LEL,rat [12],15 mg/kg/day
same,LOAEL,rat [12],15 mg/kg/day
same,NEL,rat [12],< 15 mg/kg/day
same,NOAEL,rat [12],< 15 mg/kg/day
